Where a name gives a salt, the structure may show the parent alone.
Molecular target: T1, AR transactivation domain (TAD) (Homo sapiens, UniProt P10275)
T1 construct: expressed in transfected cells
T1 sequence (P10275 1-559 limits assumed): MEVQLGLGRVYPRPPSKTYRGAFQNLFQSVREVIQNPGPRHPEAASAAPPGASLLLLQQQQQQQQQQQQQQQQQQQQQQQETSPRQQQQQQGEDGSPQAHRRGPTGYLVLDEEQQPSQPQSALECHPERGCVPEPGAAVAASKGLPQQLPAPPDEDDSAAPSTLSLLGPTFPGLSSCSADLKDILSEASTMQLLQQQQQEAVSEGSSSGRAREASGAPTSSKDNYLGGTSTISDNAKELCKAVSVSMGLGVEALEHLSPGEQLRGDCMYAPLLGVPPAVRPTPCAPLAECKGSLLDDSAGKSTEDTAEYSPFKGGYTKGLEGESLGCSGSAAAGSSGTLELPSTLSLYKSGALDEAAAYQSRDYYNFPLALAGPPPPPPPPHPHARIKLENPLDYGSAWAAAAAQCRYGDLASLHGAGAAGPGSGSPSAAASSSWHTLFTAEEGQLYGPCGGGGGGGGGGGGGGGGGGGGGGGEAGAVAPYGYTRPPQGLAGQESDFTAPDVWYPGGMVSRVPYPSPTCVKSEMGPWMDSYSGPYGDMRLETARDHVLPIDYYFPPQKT
Test: AR-TAD fused to GAL4 DNA-binding domain reporter assay
Type: cell-based
Excerpt: The inhibitory activity of JN018 was further evaluated in experiments in which the AR transactivation domain (TAD) or the c-Jun or CREB TAD was fused to the heterologous GAL4 DNA-binding domain and thereby drive reporter gene expression governed by the GAL4 response element (FIG. 1).

Question: Which AR-TAD (Table 3 grade HIGH/MED/LOW, grades not defined) does the source give for `C=C(CN(C)Cc1ccccc1)C(=O)/C(=C/c1ccc(Cl)cc1)c1ccccc1` [JN018, (E)-4-((Benzyl(methyl)amino)methyl)-1-(4-chlorophenyl)-2-phenylpenta-1,4-dien-3-one hydrochloride] here?
Answer: HIGH

Question: What about the “inhibition of the AR-GAL4-DBD fusion protein” value (result in words, versus c-Jun or CREB TAD fusions) of the same compound?
Answer: selectively inhibits

Reference: patent US11261152B2, “Inhibitors of the N-terminal domain of the androgen receptor” (The Regents of the University of California, priority 2017, dated 2022)
